This is an account of results in US20230002344A1, “NOVEL BENZOTHIOPHENE DERIVATIVES AND USE THEREOF FOR STIMULATING MITOCHONDRIAL TURNOVER” (NIBN, The National Institute For Biotechnology In The Negev …, priority 2019, published 2023).

SMILES strings stand for the structures.

Holding throughout (type): cell-based
Series [1] has as its system INS1 cells expressing MitoTimer. In words: MitoTimer red/green ratio high-content screen and dose-response. Conditions: 18 h, Rapamycin 100 nM; for MitoTimer red/green ratio (known modulators): Urolithin 50 uM, Bafilomycin 200 nM, Chloroquine 20 uM. As for the experimental part: INS1 cells were stably transduced with MitoTimer by lentiviral infection and were tested using known modulators of autophagy. The paradigm used was based on previous reports showing that the shift in emission from green to red occurs within 18 hours. Assuming that this shift is constant, changes in red FI occurring during this frame of time can result from an effect on MitoTimer clearance and not from an effect on synthesis. The paradigm employed consisted therefore of a treatment lasting 18 hours followed by imaging.
Stimulators of mitochondrial clearance were defined as those inducing a red-to-green FI below −3 and a red intensity below −5.1. Suppressors of mitochondrial clearance were defined as those inducing a red-to-green FI above 10.34 and a red intensity above 4.5. […] Compounds displaying high green FI (above 15) were also discarded to prevent the inclusion of autofluorescent molecules. Only molecules that filled the above criteria in both duplicates were further tested.
The screen was performed during 8 sessions in Weizmann institute. All compounds were tested at a concentration of 10 μM, in duplicates. The images were processed to reduce background (using Metamorph software) and then analyzed in GeneData software.
We subjected those compounds to a dose-response assay (concentrations: 10, 3.33, 1.11, 0.37 and 0.12 μM).
MitoTimer expressing INS1 cells generation, Cell Culture and treatments. MitoTimer-reporter was cloned into the pHAGE2 lenti-vector under the full-length EF1-alpha promoter to obtain constitutive expression. For the HCS, INS1 cells were infected with lentivirus carrying mitochondrial complex-I-targeted-MitoTimer plasmid. Highly expressing cells were selected by high speed fluorescence activated cell sorter (SY3200 cell sorter, Synergy, iCyt) and kept by the addition of puromycin (1 mg . L-1) in the cell media. Cells were thawed before each experiment, and MitoTimer expression checked through fluorescence.
High-Content Screening. […] HCS assay was developed at the Drug Discovery Unit, INCPM, Weizmann Institute of Science. […] Briefly, cells were treated with 10 uM of each compounds for 18 h and imaged in two wavelengths (FITC—excitation […], emission 520/35 nm and TRITC—excitation 543/22 nm, emission 593/40 nm) at ImageXpress Micro High-Content Imaging System/Molecular Devices. Rapamycin 100 nM was used as a control. In each cell plate, the neutral (DMSO) and positive control (Rapamycin) were repeated in 16 replicates while the treatments were performed in duplicates. Each plate was replicated and only hits found in the 2 independent plates were considered. Two fields of each well were analyzed, what normally allowed the analysis of 20-40 cells per condition. MitoTimer red/green ratio for every cell was done in MetaXpress. […] The compounds which affected MitoTimer red/green ratio in a dose response, ranging from […], were classified as a hit.
Individual cells were identified using the red channel, and red and green MitoTimer fluorescence were analyzed and ratio determined per cell.

The test system of series [2] is INS1 cells. Kind of series: Mitochondrial mass by Mitotracker green staining. The note with it: 18 h; SPB08007 25 μM, MWP00839 11.5 μM, Urolithin A 25 μM. As to the method:
The Z-score depicts the standard deviation from the neutral control (DMSO). In FIG. 3C: Mitochondrial mass in INS1 cells treated for 18 hours with either DMSO (control), Urolithin A (25 μM), SPB08007 (“SBP”) (25 μM) or MWP00839 (“MWP”) (11.5 μM) and then stained with Mitotracker green (200 nM). In FIG. 3D: SPB08007 and MWP00839 increase the number of mitochondria inside autolysosomes. INS1 cells expressing mCherry-GFP were exposed to SPB08007, MWP00839, and DMSO for 8 hours and then subjected to confocal microscopy. The area of red fluorescence in the taken images was determined. N=3+/−SEM pANOVA<0.05. FIG. 3E provides representative images. […] FIG. 3F provides the Western blot against LC3 in INS1 cells treated with the compounds in presence or absence of bafilomycin (+b) for the last 2 hours.
Mitotracker Green Fluorescence, Anion Radical Superoxide and Mitochondrial Membrane Potential. INS1 cells were seeded into wells of a 96-wells glass bottom cell culture plate (CELLSTAR) at a density of 2*10^4 cells/well. To assess mitochondrial clearance, a pulse-chase experiment was performed. […] Results are expressed as the percentage of MTG fluorescence relative to MTG fluorescence of the “time 0” control. […] Integrated fluorescence of each field was analyzed in Image J after background subtraction and threshold (IsoData) application. Twenty-four fields of each condition were analyzed in each experiment.

The subject of series [3] is INS1 cells. Kind of series: Cell growth rate under doxycycline. The note with it: 1 mg/ml, 24, 48 and 72 hours. As to the method: (§1) INS1 (an insulin secreting cell line) cells (FIGS. 1A and 1B) and primary beta-cells (FIG. 1C) were treated with 1 mg/ml doxycycline for 72 hours. […] FIGS. 1B and 1C show basal Oxygen Consumption Rate (OCR) measured with Seahorse XF 24 respirometer. Average of 4 wells +/−SEM.

In series [4] the test system is primary beta-cells. In words: Basal oxygen consumption rate in primary beta-cells. The note with it: 1 mg/ml, 72 hours. As for the experimental part:
as §1

As for `CO/C1=C\C(C)=C\[C@@H](C)[C@@H](O)[C@@H](C)C/C(C)=C/C=C/[C@H](OC)[C@@H]([C@@H](C)[C@@H](O)[C@H](C)[C@@]2(O)C[C@@H](O)[C@H](C)[C@@H](C(C)C)O2)OC1=O` [bafilomycin A1, reference compound], in series [1], the “MitoTimer red/green ratio (known modulators)” value was “increased”. As to `O=c1oc2cc(O)ccc2c2ccc(O)cc12` [Urolithin A, reference compound], in series [2], the “mitochondrial mass (mitotracker green fluorescence)” value is listed as “reduction”. The “MitoTimer red/green ratio (known modulators)” value in series [1] is given as “significantly reduced”. With `CO[C@H]1C[C@@H]2CC[C@@H](C)[C@@](O)(O2)C(=O)C(=O)N2CCCC[C@H]2C(=O)O[C@H]([C@H](C)C[C@@H]2CC[C@@H](O)[C@H](OC)C2)CC(=O)[C@H](C)/C=C(\C)[C@@H](O)[C@@H](OC)C(=O)[C@H](C)C[C@H](C)/C=C/C=C/C=C/1C` [Rapamycin, reference compound], the “increase of MitoTimer red/green ratio” value in series [1] was 50%. Consider `C[C@H]1c2cccc(O)c2C(=O)C2=C(O)[C@]3(O)C(=O)C(C(N)=O)=C(O)[C@@H](N(C)C)[C@@H]3[C@@H](O)[C@@H]21` [Doxycycline], for which the cell growth entry in series [3] was “impairs”. The “basal oxygen consumption rate (OCR)” value in series [4] is “impairs”.
